Experimental data from publication PMC8776995 (Frontiers in Chemistry, 2022).
“And” between values parts separate entries of the source, which are not always exact repeats. Equal values may be shown once.

What was measured:
[1] = target: wild-type EGFR (Homo sapiens, UniProt P00533); assay: EGFR kinase assay (ELISA); settings: for IC50: IC50 (μM) EGFR, ELISA, 3 μmol/L ATP; for A450: raw ELISA absorbance
[2] = system: H460 cells; assay: CCK-8 antiproliferation assay, H460; settings: for Inhibitory efficacy: H460 cells; for IC50: NCI-H460, 48 h, read-out: IC50 (μM) H460, CCK-8, 48 h, average ± SD of three independent experiments
[3] = system: A549 cells; assay: CCK-8 antiproliferation assay, A549; settings: for Inhibitory efficacy: A549 cells; for IC50: A549, 48 h, read-out: IC50 (μM) A549, CCK-8, 48 h, average ± SD of three independent experiments
[4] = system: PC-9 cells; assay: CCK-8 antiproliferation assay, PC-9; settings: for IC50: PC-9, 48 h, read-out: IC50 (μM) PC-9; for inhibition at 8 µM: PC-9, read-out: Inhibitory efficacy, PC-9, 8uM, single repeats (Repeat 1-3), given as fraction; for inhibition at 16 µM: PC-9, read-out: Inhibitory efficacy, PC-9, 16uM, single repeats (Repeat 1-3), given as fraction; for Inhibitory efficacy: single repeats (Repeat 1-3), given as fraction
[5] = system: H1975 cells; assay: CCK-8 antiproliferation assay, H1975; settings: for IC50: NCI-H1975, 48 h, read-out: IC50 (μM) H1975, CCK-8, 48 h, average ± SD of three independent experiments; for Inhibitory efficacy: H1975 cells
[6] = concentration 0.3 nM, one value per replicate column, 0.0003 µM
[7] = concentration 3 nM, one value per replicate column
[8] = concentration 3 nM, one value per replicate column, 0.003 µM
[9] = concentration 30 nM, one value per replicate column
[10] = concentration 30 nM, one value per replicate column, 0.03 µM
[11] = concentration 300 nM, one value per replicate column
[12] = concentration 300 nM, one value per replicate column, 0.3 µM
[13] = concentration 3000 nM, one value per replicate column
[14] = concentration 3000 nM, one value per replicate column, 3 µM
[15] = concentration 30000 nM, one value per replicate column
[16] = concentration 30000 nM, one value per replicate column, 30 µM
[17] = 2uM, given as fraction, Repeat 1-3
[18] = 16uM, given as fraction, Repeat 1-3
[19] = Homo sapiens, NCI-H460, read-out: Inhibitory efficacy, H460 cells, 16uM, given as fraction, Repeat 1-3
[20] = 1uM, given as fraction, Repeat 1-3
[21] = 4uM, given as fraction, Repeat 1-3
[22] = Homo sapiens, A549, read-out: Inhibitory efficacy, A549 cells, 1uM, given as fraction, Repeat 1-3
[23] = Homo sapiens, A549, read-out: Inhibitory efficacy, A549 cells, 2uM, given as fraction, Repeat 1-3
[24] = Homo sapiens, A549, read-out: Inhibitory efficacy, A549 cells, 4uM, given as fraction, Repeat 1-3
[25] = Homo sapiens, A549, read-out: Inhibitory efficacy, A549 cells, 16uM, given as fraction, Repeat 1-3
[26] = 8uM, given as fraction, Repeat 1-3

Chain of wild-type EGFR (P00533 25-1210): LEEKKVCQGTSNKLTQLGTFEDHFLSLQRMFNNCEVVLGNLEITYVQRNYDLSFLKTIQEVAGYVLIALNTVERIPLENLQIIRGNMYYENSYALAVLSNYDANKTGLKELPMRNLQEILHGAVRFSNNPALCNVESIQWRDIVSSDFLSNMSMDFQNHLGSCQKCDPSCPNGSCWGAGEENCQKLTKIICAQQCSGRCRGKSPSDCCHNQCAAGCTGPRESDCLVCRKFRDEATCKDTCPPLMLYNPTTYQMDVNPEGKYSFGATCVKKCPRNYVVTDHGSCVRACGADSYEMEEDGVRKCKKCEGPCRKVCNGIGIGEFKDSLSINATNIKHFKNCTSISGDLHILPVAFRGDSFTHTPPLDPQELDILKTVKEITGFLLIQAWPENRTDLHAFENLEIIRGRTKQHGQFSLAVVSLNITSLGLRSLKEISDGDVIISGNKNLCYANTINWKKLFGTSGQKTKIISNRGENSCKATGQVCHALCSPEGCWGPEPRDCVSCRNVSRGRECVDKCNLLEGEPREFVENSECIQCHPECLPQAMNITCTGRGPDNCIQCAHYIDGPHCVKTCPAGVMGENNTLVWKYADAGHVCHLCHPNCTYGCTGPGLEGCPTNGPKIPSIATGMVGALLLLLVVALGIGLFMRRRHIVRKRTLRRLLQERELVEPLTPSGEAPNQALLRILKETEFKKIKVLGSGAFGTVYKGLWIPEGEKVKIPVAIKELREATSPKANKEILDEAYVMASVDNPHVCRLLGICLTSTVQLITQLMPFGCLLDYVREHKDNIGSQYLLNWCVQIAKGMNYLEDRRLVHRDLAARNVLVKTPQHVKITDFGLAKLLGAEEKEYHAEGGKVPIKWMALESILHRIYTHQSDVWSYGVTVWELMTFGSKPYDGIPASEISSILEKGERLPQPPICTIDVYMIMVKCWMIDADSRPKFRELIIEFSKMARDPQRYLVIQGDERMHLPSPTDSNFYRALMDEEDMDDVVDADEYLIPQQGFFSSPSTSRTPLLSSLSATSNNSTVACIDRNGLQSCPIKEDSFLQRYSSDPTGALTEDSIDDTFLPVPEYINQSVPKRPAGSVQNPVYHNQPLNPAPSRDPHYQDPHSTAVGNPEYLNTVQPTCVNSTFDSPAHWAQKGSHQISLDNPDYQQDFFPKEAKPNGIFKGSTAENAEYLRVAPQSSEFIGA

Compound: COCCOc1cc2ncnc(Nc3cccc(-c4cn(-c5ccc(OC)c(OC)c5)nn4)c3)c2cc1OCCOC [e19, N-(3-(1-(3,4-dimethoxyphenyl)-1H-1,2,3-triazol-4-yl)phenyl)-6,7-bis(2-methoxyethoxy)quinazolin-4-amine]
- melting point: 106 to 109 °C
- IC50 [1]: 28.1 µM
- inhibition at 100 fM ([1]; concentration 0.0001 nM (reference for normalisation), one value per replicate column): 0%
- inhibition at 30 pM ([1]; concentration 0.03 nM, one value per replicate column): 0%
- inhibition at 0.0003 µM ([1]; concentration 0.3 nM, one value per replicate column): 1.06%
- Inhibition [1, 6]: 0.9259
- inhibition at 0.003 µM [1, 7]: 2.12%
- Inhibition [1, 8]: 3.333
- inhibition at 0.03 µM [1, 9]: 6.35%
- Inhibition [1, 10]: 7.222
- inhibition at 0.3 µM [1, 11]: 6.7%
- Inhibition [1, 12]: 10.3704
- inhibition at 3 µM [1, 13]: 8.29%
- Inhibition [1, 14]: 15.5556
- inhibition at 30 µM [1, 15]: 52.7%
- Inhibition [1, 16]: 51.6667
- A450 ([1]; concentration 0.0001 nM): 0.772 and 0.745
- A450 ([1]; concentration 0.03 nM): 0.772 and 0.745
- A450 ([1]; concentration 0.3 nM): 0.766 and 0.74
- A450 ([1]; concentration 3 nM): 0.76 and 0.727
- A450 ([1]; concentration 30 nM): 0.736 and 0.706
- A450 ([1]; concentration 300 nM): 0.734 and 0.689
- A450 ([1]; concentration 3000 nM): 0.725 and 0.661
- A450 ([1]; concentration 30000 nM): 0.473 and 0.466
- Inhibitory efficacy [2, 17]: 0.2578 and 0.3115
- Inhibitory efficacy [2, 18]: 0.424 and 0.3358
- IC50 ([2]; Homo sapiens): > 100 µM
- inhibition at 2 µM ([2]; Homo sapiens, NCI-H460, read-out: Inhibitory efficacy, H460 cells, 2uM, given as fraction, Repeat 1-3): 32.2%
- inhibition at 16 µM [2, 19]: 33.1%
- Inhibitory efficacy [3, 20]: 0.1948 and 0.1677
- Inhibitory efficacy [3, 17]: 0.2727 and 0.2237
- Inhibitory efficacy [3, 21]: 0.2792 and 0.2418
- Inhibitory efficacy [3, 18]: 0.2527 and 0.2605
- IC50 ([3]; Homo sapiens): > 100 µM
- inhibition at 1 µM [3, 22]: 21.2%
- inhibition at 2 µM [3, 23]: 23.7%
- inhibition at 4 µM [3, 24]: 19.7%
- inhibition at 16 µM [3, 25]: 26.2%
- IC50 ([4]; Homo sapiens): 23.5 ± 10.2 µM
- inhibition at 1 µM ([4]; Homo sapiens, PC-9, read-out: Inhibitory efficacy, PC-9, 1uM, single repeats (Repeat 1-3), given as fraction): 21.9%
- inhibition at 2 µM ([4]; Homo sapiens, PC-9, read-out: Inhibitory efficacy, PC-9, 2uM, single repeats (Repeat 1-3), given as fraction): 32.9%
- inhibition at 8 µM ([4]; Homo sapiens): 35.7%
- inhibition at 16 µM ([4]; Homo sapiens): 49.7%
- Inhibitory efficacy ([4]; PC-9, 1uM, 1 µM): 0.1694 and 0.3158
- Inhibitory efficacy ([4]; PC-9, 2uM, 2 µM): 0.2911 and 0.3553
- Inhibitory efficacy ([4]; PC-9, 4uM, 4 µM): 0.4984 and 0.2516 and 0.3668
- Inhibitory efficacy ([4]; PC-9, 8uM, 8 µM): 0.4737 and 0.4424
- Inhibitory efficacy ([4]; PC-9, 16uM, 16 µM): 0.4062 and 0.4457
- IC50 ([5]; Homo sapiens): > 100 µM

Compound: COCCOc1cc2ncnc(Nc3cccc(-c4cn(-c5ccccc5C(F)(F)F)nn4)c3)c2cc1OCCOC [e16, [6,7-Bis-(2-methoxy-ethoxy)-quinazolin-4-yl]-{3-[1-(2-trifluoromethyl-phenyl)-1H-[1,2,3]triazol-4-yl]-phenyl}-amine]
- melting point: 113 to 116 °C
- IC50 [1]: 32.5 µM
- Inhibition ([1]; concentration 0.03 nM, one value per replicate column, 3e-05 µM): 19.0252 and 4.409
- Inhibition [1, 6]: 9.134
- inhibition at 0.003 µM [1, 7]: 19.8%
- Inhibition [1, 8]: 15.5906
- inhibition at 0.03 µM [1, 9]: 23.4%
- Inhibition [1, 10]: 15.748
- inhibition at 0.3 µM [1, 11]: 27%
- Inhibition [1, 12]: 20.1575
- inhibition at 3 µM [1, 13]: 29.6%
- Inhibition [1, 14]: 27.7165
- inhibition at 30 µM [1, 15]: 60.1%
- Inhibition [1, 16]: 60
- A450 ([1]; concentration 0.0001 nM): 0.901 and 0.865
- A450 ([1]; concentration 0.03 nM): 0.78 and 0.837
- A450 ([1]; concentration 0.3 nM): 0.775 and 0.807
- A450 ([1]; concentration 3 nM): 0.775 and 0.766
- A450 ([1]; concentration 30 nM): 0.752 and 0.765
- A450 ([1]; concentration 300 nM): 0.729 and 0.737
- A450 ([1]; concentration 3000 nM): 0.713 and 0.689
- A450 ([1]; concentration 30000 nM): 0.519 and 0.484
- Inhibitory efficacy [2, 21]: 0.2156 and 0.191
- Inhibitory efficacy [2, 26]: 0.4491 and 0.447
- Inhibitory efficacy [2, 18]: 0.6066 and 0.6034
- IC50 ([2]; Homo sapiens): 10.9 ± 0.39 µM
- inhibition at 4 µM ([2]; Homo sapiens, NCI-H460, read-out: Inhibitory efficacy, H460 cells, 4uM, given as fraction, Repeat 1-3): 21.3%
- inhibition at 8 µM ([2]; Homo sapiens, NCI-H460, read-out: Inhibitory efficacy, H460 cells, 8uM, given as fraction, Repeat 1-3): 49.5%
- inhibition at 16 µM [2, 19]: 57.3%
- Inhibitory efficacy [3, 20]: 0.2305 and 0.3107
- Inhibitory efficacy [3, 17]: 0.2917 and 0.3288
- Inhibitory efficacy [3, 21]: 0.4966 and 0.48
- Inhibitory efficacy [3, 26]: 0.5015 and 0.5395
- Inhibitory efficacy [3, 18]: 0.6478 and 0.6577
- IC50 ([3]; Homo sapiens): 5.75 ± 0.48 µM
- inhibition at 1 µM [3, 22]: 15.9%
- inhibition at 2 µM [3, 23]: 32.3%
- inhibition at 4 µM [3, 24]: 54.2%
- inhibition at 8 µM ([3]; Homo sapiens, A549, read-out: Inhibitory efficacy, A549 cells, 8uM, given as fraction, Repeat 1-3): 54.2%
- inhibition at 16 µM [3, 25]: 64%
- IC50 ([4]; Homo sapiens): 7.71 ± 1.15 µM
- inhibition at 4 µM ([4]; Homo sapiens, PC-9, read-out: Inhibitory efficacy, PC-9, 4uM, single repeats (Repeat 1-3), given as fraction): 49.1%
- inhibition at 8 µM ([4]; Homo sapiens): 56.9%
- inhibition at 16 µM ([4]; Homo sapiens): 60.8%
- Inhibitory efficacy ([4]; PC-9, 4uM, 4 µM): 0.4427 and 0.4497
- Inhibitory efficacy ([4]; PC-9, 8uM, 8 µM): 0.7173 and 0.5415
- Inhibitory efficacy ([4]; PC-9, 16uM, 16 µM): 0.5494 and 0.5275
- Inhibitory efficacy [5, 26]: 0.3646 and 0.348
- Inhibitory efficacy [5, 18]: 0.506 and 0.5045
- IC50 ([5]; Homo sapiens): 15.3 ± 1.55 µM
- inhibition at 8 µM ([5]; Homo sapiens, NCI-H1975, read-out: Inhibitory efficacy, H1975 cells, 8uM, given as fraction, Repeat 1-3): 44%
- inhibition at 16 µM ([5]; Homo sapiens, NCI-H1975, read-out: Inhibitory efficacy, H1975 cells, 16uM, given as fraction, Repeat 1-3): 48%
